Source: paper PMC12316891, “A bottom-up approach to find lead compounds in expansive chemical spaces” (Communications Chemistry, 2025)
pIC50: −log10 of the molar value.

Legend:
[1] = target: T1, BRD4 (BD1) (Homo sapiens, UniProt O60885); assay: Competitive HTRF TR-FRET binding assay (displacement of acetylated histone H4 peptide); settings: for pIC50 / TR-FRET IC50 (nM): 16-point titration 0.1 nM to 10 µM, n = 2, Negative = curve could not be fitted to a sigmoidal curve; for pIC50: read-out: TR-FRET IC50; for IC50 by HTRF TR-FRET, range in words: potency range or dose-response behaviour
T1 construct: A pET28 plasmid containing residues 44–168 of BRD4 (BD1), a 6xHis tag, a TEV protease cleavage site; 6xHis (N, cleaved yes); made in house; host or cells: E. coli Rosetta (D3)
Description: To further quantitatively characterize the DSF/SPR hits compounds obtained in the single-dose screenings, we selected HTRF TR-FRET. Specifically, we employed a competitive HTRF TR-FRET experiment to measure the compound’s capacity to displace an acetylated peptide from the binding site of BRD4 (BD1). For each molecule, a 16-point concentration curve was titrated against the peptide-BRD (BD1) complex and incubated for 1.5 h. A compound was considered a positive binder if we could fit its titration curve to a sigmoidal curve to determine its IC50. […] Compound screening was carried out in 384-well, white, round-bottom, small-volume plates (CORNING) in a final volume of 20 µL of 50 mM HEPES (pH 7.4), 50 mM NaCl, 400 mM KF, 0.5 mM CHAPS, and 0.05% BSA. […] Then, the labeled anti-His6-XL665 antibody (CisBio) (10 nM) was added to the mixture and incubated for 15 min, before the Eu3+ cryptate-conjugated streptavidin (2 nM) (CisBio) was added and incubated for 15 min. All incubations were performed at room temperature. […] Titration of (+)−JQ1 was used as a positive control for each experiment.

[2] = target: T2, His6-BRD4 (BD1) (Homo sapiens, UniProt O60885); assay: Surface plasmon resonance (SPR) single-dose screening; assay type: binding; parameters: key to SPR RESULT: Positive: compounds were considered as SPR hits also when their average signal was further than two standard deviations apart from the average signal of the blank samples (1% DMSO); settings: for RUs at [10 µM]: SPR, compound 10 µM, 1% DMSO, n = 2, decimal comma; for SPR RESULT: single dose 10 µM, n = 2
T2 construct: A pET28 plasmid containing residues 44–168 of BRD4 (BD1), a 6xHis tag, a TEV protease cleavage site; made in house; host or cells: E. coli Rosetta (D3)

[3] = target: T1, BRD4 (BD1); assay: Differential scanning fluorimetry (DSF) single-dose thermal shift screening; assay type: binding; settings: DSF, compound 10 µM, BRD4 (BD1) 2 µM, n = 3, decimal comma; read-out: ΔTm ºC at [10 µM]

| SMILES | pIC50 [1] | RUs at [10 µM] [2] | SPR RESULT [2] | ΔTm at 10 µM [3] [°C] | IC50 by HTRF TR-FRET, range in words [1] | TR-FRET IC50 (nM) [1] |
| --- | --- | --- | --- | --- | --- | --- |
| COc1cccnc1C(=O)N1CCC2(CC(NC(=O)c3occc3Br)c3ccccc3O2)C1 (centres unmarked) [Compound 66, COC=1C=CC=NC1C(=O)N2CCC3(C2)CC(NC(=O)C=4OC=CC4Br)C=5C=CC=CC5O3] | 6.87 | 20,41 ± 1,87 RUs | Positive | 0.83 | – | – |
| Cc1cc(C)n2c(CNc3ccc(C)c(NC(=O)CN4CCCCC4)c3)cnc2n1 [Compound 67, CC=1C=C(C)N2C(CNC=3C=CC(C)=C(NC(=O)CN4CCCCC4)C3)=CN=C2N1] | 8.43 | 28,42 ± 2,09 RUs | Positive | 0.81 | low nM | – |
| CC(=O)c1ccc(N2CCN(C(=O)Nc3nnc(C)s3)CC2)c(F)c1 [Compound 69, CC(=O)C=1C=CC(N2CCN(CC2)C(=O)NC3=NN=C(C)S3)=C(F)C1] | – | 23,49 ± 1,0 RUs | Positive | 0.61 | – | Negative |
| COc1ccc(C=C(CC(=O)Nc2nnc(C)s2)c2nc3ccccc3s2)cc1OC [Compound 70, COC=1C=CC(C=C(CC(=O)NC2=NN=C(C)S2)C3=NC=4C=CC=CC4S3)=CC1OC] | 6.91 | 21,72 ± 4,06 RUs | Positive | 0.65 | – | – |
| Cc1cc(C)n2nc(NC(=O)NCCOC3(C)CCOCC3)nc2n1 [Compound 71, CC=1C=C(C)N2N=C(NC(=O)NCCOC3(C)CCOCC3)N=C2N1] | 7.15 | 11,01 ± 0,31 RUs | Positive | 0.79 | – | – |
| Cc1ncc(CNC(=O)NCc2cccc(S(=O)(=O)NC(C)C)c2)c(O)n1 [Compound 72, CC(C)NS(=O)(=O)C=1C=CC=C(CNC(=O)NCC=2C=NC(C)=NC2O)C1] | 7.03 | 19,09 ± 5,61 RUs | Positive | 0.51 | – | – |
| Cc1nnc(NC(=O)NCc2cccc(C(=O)NCC3CCCO3)c2)s1 (centres unmarked) [Compound 73, CC1=NN=C(NC(=O)NCC=2C=CC=C(C2)C(=O)NCC3CCCO3)S1] | 4.97 | 23,59 ± 6,69 RUs | Positive | 1.13 | – | – |
| Cc1cc(C)n2nc(NC(=O)N3CCC(CCC(C)(C)C)C3)nc2n1 (centres unmarked) [Compound 74, CC=1C=C(C)N2N=C(NC(=O)N3CCC(CCC(C)(C)C)C3)N=C2N1] | 5.86 | 52,94 ± 6,92 RUs | Positive | 0.4 | – | – |
| Cc1nnc(NC(=O)CCC(=O)N2Cc3ccccc3OC3(CCOC3)C2)s1 (centres unmarked) [Compound 76, CC1=NN=C(NC(=O)CCC(=O)N2CC=3C=CC=CC3OC4(CCOC4)C2)S1] | 6.39 | 25 ± 11,77 RUs | Negative | 2.11 | – | – |
| Cc1nnc(NC(=O)C2CCCN(C(=O)c3ccc(Br)c(F)c3)C2)s1 (centres unmarked) [Compound 79, CC1=NN=C(NC(=O)C2CCCN(C2)C(=O)C=3C=CC(Br)=C(F)C3)S1] | – | 33,58 ± 5,55 RUs | Positive | 1.21 | – | Negative |
| Cc1nc(=O)c(CCC(=O)NC2CC(O)(Cn3cc(-c4cnn(C)c4C)nn3)C2)c[nH]1 (centres unmarked) [Compound 81, CC1=C(C=NN1C)C2=CN(CC3(O)CC(C3)NC(=O)CCC4=CNC(C)=NC4=O)N=N2] | 7.58 | 11,5 ± 1,85 RUs | Positive | -0.15 | – | – |
| Cc1ncc(C(=O)NCCn2cc(Cn3c(C)nc4ccccc43)nn2)c(=O)[nH]1 [Compound 83, CC1=NC=2C=CC=CC2N1CC3=CN(CCNC(=O)C4=CN=C(C)NC4=O)N=N3] | 6.49 | 14,05 ± 12,27 RUs | Negative | 0.78 | – | – |
| Cc1nc(=O)c(CCC(=O)N2CC3(CCCC3)c3ccccc32)c[nH]1 [Compound 85, CC1=NC(=O)C(CCC(=O)N2CC3(CCCC3)C=4C=CC=CC24)=CN1] | 7.75 | 24,26 ± 6,71 RUs | Positive | 1.18 | – | – |
| Cc1nnc(NC(=O)CNC(c2ccc(F)cc2)c2cnn(C)c2)s1 (centres unmarked) [Compound 88, CC1=NN=C(NC(=O)CNC(C=2C=NN(C)C2)C=3C=CC(F)=CC3)S1] | 5.65 | 4,11 ± 7,31 RUs | Negative | 0.54 | – | – |
| CC(NC(=O)CC1(C)CCCO1)C1(O)CN(C(=O)c2nsnc2O)C1 (centres unmarked) [Compound 89, CC(NC(=O)CC1(C)CCCO1)C2(O)CN(C2)C(=O)C3=NSN=C3O] | 6.81 | -1,39 ± 0,54 RUs | Negative | 0.19 | – | – |
| Cc1ccc(-n2c(C)nnc2SCC(=O)N2CCOCCC23COC3)cc1 [Compound 94, CC1=NN=C(SCC(=O)N2CCOCCC32COC3)N1C=4C=CC(C)=CC4] | 7.55 | 3,87 ± 1,96 RUs | Negative | 1.19 | low nM | – |
| CCn1nnc2cc(C(=O)N3C[C@@H](OC(C)=O)[C@@H](n4cc(CN5CCC(O)CC5)nn4)C3)ccc21 [Compound 95, CCN1N=NC=2C=C(C=CC12)C(=O)N3C[C@@H](OC(=O)C)[C@H](C3)N4C=C(CN5CCC(O)CC5)N=N4] | – | 14,42 ± 2,9 RUs | Positive | 0.19 | – | Negative |

More lines, now with the values ahead:

| pIC50 [1] | RUs at [10 µM] [2] | SPR RESULT [2] | ΔTm at 10 µM [3] [°C] | IC50 by HTRF TR-FRET, range in words [1] | TR-FRET IC50 (nM) [1] | SMILES |
| --- | --- | --- | --- | --- | --- | --- |
| – | 14,74 ± 1,95 RUs | Positive | 1.2 | – | Negative | Cc1ncc(CNC(=O)c2c(-c3ccccc3)nn3ccccc23)c(O)n1 [Compound 75, CC=1N=CC(CNC(=O)C=2C(=NN3C=CC=CC23)C=4C=CC=CC4)=C(O)N1] |
| 6.87 | 67,27 ± 12,19 RUs | Positive | 0.48 | – | – | Cc1cc(C)n2nc(NC(=O)N3CCc4cc(Cl)cc(Cl)c4C3)nc2n1 [Compound 77, CC=1C=C(C)N2N=C(NC(=O)N3CCC=4C=C(Cl)C=C(Cl)C4C3)N=C2N1] |
| 6.77 | 9,01 ± 0,76 RUs | Positive | 1.53 | – | – | Cc1cc(C(=O)NCCc2nc3cc(Cl)ccc3[nH]2)n2ncnc2n1 [Compound 78, CC=1C=C(C(=O)NCCC2=NC=3C=C(Cl)C=CC3N2)N4N=CN=C4N1] |
| 7.63 | 29,64 ± 5,36 RUs | Positive | -0.49 | – | – | Cc1nnc(NC(=O)CNC(c2ccc(Cl)cc2)c2ccccc2C(C)C)s1 (centres unmarked) [Compound 80, CC(C)C=1C=CC=CC1C(NCC(=O)NC2=NN=C(C)S2)C=3C=CC(Cl)=CC3] |
| 7.53 | 38,3 ± 6,87 RUs | Positive | -0.24 | – | – | CCOc1ccc(-c2cn(C3CC(NC(=O)c4cc(C)nc5ncnn45)C3)nn2)cc1F (centres unmarked) [Compound 82, CCOC=1C=CC(=CC1F)C2=CN(N=N2)C3CC(C3)NC(=O)C4=CC(C)=NC5=NC=NN45] |
| 7.74 | 17,5 ± 1,9 RUs | Positive | 1.16 | – | – | O=C(Nc1cccc(C(=O)N2CCC(Cn3cc(C4(O)CCOCC4)nn3)CC2)c1)c1ccco1 [Compound 84, OC1(CCOCC1)C2=CN(CC3CCN(CC3)C(=O)C=4C=CC=C(NC(=O)C5=CC=CO5)C4)N=N2] |
| – | 56,94 ± 25,46 RUs | Negative | 0.94 | – | Negative | CN(Cc1cccc(OC(F)F)c1)C(=O)C(=O)NC1CCN(C(=O)c2ccco2)c2ccccc21 (centres unmarked) [Compound 86, CN(CC=1C=CC=C(OC(F)F)C1)C(=O)C(=O)NC2CCN(C(=O)C3=CC=CO3)C=4C=CC=CC24] |
| 7.95 | 15,1 ± 2,46 RUs | Positive | 2.3 | low nM | – | COC(=O)c1cc(CNC(=O)C=Cc2cnc(C)[nH]c2=O)ccc1Cl [Compound 87, COC(=O)C=1C=C(CNC(=O)C=CC2=CN=C(C)NC2=O)C=CC1Cl] |
| 6.67 | 11,06 ± 3,73 RUs | Negative | 0.43 | – | – | Cc1nonc1CC(=O)N1CC(CC(C)NC(=O)c2nsnc2O)C1 (centres unmarked) [Compound 90, CC(CC1CN(C1)C(=O)CC2=NON=C2C)NC(=O)C3=NSN=C3O] |
| 6.24 | 8,08 ± 2,94 RUs | Negative | 0.44 | – | – | Cc1cn2cc(C(=O)NC(C)CC(C)NC(=O)c3ccsn3)sc2n1 (centres unmarked) [Compound 91, CC(CC(C)NC(=O)C1=CN2C=C(C)N=C2S1)NC(=O)C=3C=CSN3] |
| 6.21 | 8,96 ± 1,15 RUs | Negative | 1.04 | – | – | COC(=O)C1(NCC(=O)Nc2nnc(C)s2)CC(C)(C)OC(C)(C)C1 [Compound 92, COC(=O)C1(CC(C)(C)OC(C)(C)C1)NCC(=O)NC2=NN=C(C)S2] |
| 6.33 | 20,44 ± 23,06 RUs | Negative | -0.58 | – | – | Cc1cc(C)n2nc(CNC(=NCCCN3CCOCC3)N3CCC(NC(=O)CBr)C3)nc2n1 (centres unmarked) [Compound 93, BrCC(=O)NC1CCN(C1)C(=NCCCN2CCOCC2)NCC=3N=C4N=C(C)C=C(C)N4N3] |
